In patent US20220324898A1, “PROSTATE SPECIFIC MEMBRANE ANTIGEN (PSMA) LIGANDS COMPRISING AN AMYLASE CLEAVABLE LINKER” (Deutsches Krebsforschungszentrum, priority 2019, published 2022):
pIC50: −log10 of the molar value. One block for each compound: values may come before it.

What was measured:
[1] = Organ distribution of 177Lu-labeled PSMA ligands in LNCaP tumor-bearing mice; assay type: in vivo, BALB/c nu/nu mice; settings: 60 pmol via tail vein, mean, n=3; for Organ distribution: Tumor: LNCaP tumor
Experimental: 5×10^6 LNCaP cells were subcutaneously inoculated into the right flank of male 6-week-old BALB/c nu/nu mice (Charles River Laboratories). Tumors were grown for ˜3 weeks, to ˜200 mm^3. 60 pmoles of ^177Lu labelled PSMA-ligands were dissolved in 100 μL 0.9% NaCl and injected per mouse. The solution was injected via the tail vein, followed by sacrifice at various time points. Organs of interest (blood, heart, lung, spleen, liver, kidney, muscle, small intestine, brain, tumor, and femur) were dissected, blotted dry, and weighed. The radioactivity was measured using a gamma counter and calculated as % ID/g, and corrected for ^177Lu decay.
The results are given in the following tables (mean+standard deviation; per time point n=3 animals) (see also FIG. 4): […]

LNCaP cells = assay: Internalization and cell surface binding of 177Lu-labeled PSMA ligands; assay type: cell-based; settings: 30 nM 177Lu-labeled ligand, 45 min, 37° C., blocking with 2-PMPA
Experimental: 10^5 LNCaP cells were seeded in poly-L-lysine coated 24-well cell culture plates. 24 h later, wells were washed and the cells incubated with a 30 nM solution of ^177Lu radiolabeled PSMA-ligand (PSMA-617 or PSMA-MT) in 250 μL medium, for 45 min at 37° C. In the blocking experiments, incubation was performed in the presence of excess of 2-PMPA to assess competition for PSMA. Following incubation, PSMA-ligand containing medium was removed by washing 3 times with 1 mL of ice-cold PBS. Cells were subsequently incubated twice with 0.5 mL glycine-HCl in PBS (50 mM, pH=2.8) for 5 min to extract the cell membrane associated fraction. The cells were then washed with 1 mL of ice-cold PBS, and lysed with 0.5 mL 0.3 M NaOH. The membrane bound and lysed (internalized) fractions were assessed for radioactivity levels using a gamma counter (Packard Cobra II, GMI, Minn., USA). Cell uptake was calculated as percent of the initially added radioactivity detected in 10^5 cells [% IA/10^5 cells].

prostate cancer = settings: cited from earlier work
PSMA = target: T1, PSMA (Homo sapiens, UniProt Q04609); assay: Competitive cell binding against 68Ga-labeled PSMA-10 radioligand; settings: non-labeled compound vs 0.8 nM 68Ga-PSMA-10; first preliminary experiments; read-out: IC50 (50% inhibitory concentration), competitive cell binding
T1 construct: endogenous in cells
T1 sequence (Q04609 whole entry): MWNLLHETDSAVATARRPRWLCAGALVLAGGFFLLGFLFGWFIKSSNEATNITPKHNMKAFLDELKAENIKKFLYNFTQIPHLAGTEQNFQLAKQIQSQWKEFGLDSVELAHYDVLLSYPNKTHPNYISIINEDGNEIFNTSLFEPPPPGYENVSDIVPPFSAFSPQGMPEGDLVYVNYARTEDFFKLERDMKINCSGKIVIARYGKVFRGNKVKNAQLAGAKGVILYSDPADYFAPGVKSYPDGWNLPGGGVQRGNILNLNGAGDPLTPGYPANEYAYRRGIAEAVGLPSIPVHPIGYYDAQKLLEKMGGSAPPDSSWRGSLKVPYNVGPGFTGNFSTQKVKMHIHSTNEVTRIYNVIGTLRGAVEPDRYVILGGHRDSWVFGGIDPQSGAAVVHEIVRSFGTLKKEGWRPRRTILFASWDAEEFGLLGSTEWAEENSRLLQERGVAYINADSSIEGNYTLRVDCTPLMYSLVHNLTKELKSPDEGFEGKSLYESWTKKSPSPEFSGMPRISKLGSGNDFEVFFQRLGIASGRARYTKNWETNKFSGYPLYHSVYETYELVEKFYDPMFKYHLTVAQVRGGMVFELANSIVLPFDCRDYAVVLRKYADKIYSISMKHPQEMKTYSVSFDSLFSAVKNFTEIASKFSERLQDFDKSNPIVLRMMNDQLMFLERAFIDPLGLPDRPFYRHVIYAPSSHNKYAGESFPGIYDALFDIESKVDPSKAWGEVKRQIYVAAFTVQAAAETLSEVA
Experimental: For the determination of competitive cell binding the cells (10^5 per well) were incubated with a 0.8 nM solution of ^68Ga-labeled radioligand [Glu-urea-Lys(Ahx)]2-HBED-CC (PSMA-10, precursor ordered from ABX, Radeberg, Germany) in the presence of 12 different concentrations of analyte (non-labeled compounds, 0-5000 nM, 100 μL/well). After incubation, the mixture was removed and the wells were washed 3 times with PBS using a multiscreen vacuum manifold (Millipore, Billerica, Mass.). Cell-bound radioactivity was measured using a gamma counter (Packard Cobra II, GMI, Minn., USA). The 50% inhibitory concentration (IC50) values were calculated by fitting the data using a nonlinear regression algorithm (GraphPad Software).

[2] = target: T2, α-amylase (isolated from the human salivary gland) (Homo sapiens, UniProt P0DUB6); assay: Cleavability of the linker by α-amylase, monitored by analytical HPLC; assay type: in vitro ADME; settings: in vitro, after 177Lu labeling according to example 1A, analytical HPLC at different times
T2 construct: incubated with α-amylase (isolated from the human salivary gland, Sigma-Aldrich); purchased Sigma-Aldrich; host or cells: human salivary gland (natural source)
T2 sequence (P0DUB6 16-511): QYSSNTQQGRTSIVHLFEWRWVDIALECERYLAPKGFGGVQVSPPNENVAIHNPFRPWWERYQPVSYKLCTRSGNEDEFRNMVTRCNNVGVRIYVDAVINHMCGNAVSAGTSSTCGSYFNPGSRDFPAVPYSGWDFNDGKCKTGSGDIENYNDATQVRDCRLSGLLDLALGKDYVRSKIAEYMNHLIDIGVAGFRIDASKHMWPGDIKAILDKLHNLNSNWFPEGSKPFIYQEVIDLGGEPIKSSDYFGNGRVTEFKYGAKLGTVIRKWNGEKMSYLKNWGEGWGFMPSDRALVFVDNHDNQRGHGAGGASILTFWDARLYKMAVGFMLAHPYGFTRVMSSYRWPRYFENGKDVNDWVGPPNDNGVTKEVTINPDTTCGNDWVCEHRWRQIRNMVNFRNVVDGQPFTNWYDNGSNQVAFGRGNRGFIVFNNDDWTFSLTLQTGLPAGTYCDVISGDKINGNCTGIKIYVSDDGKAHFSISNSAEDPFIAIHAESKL
Experimental: FIG. 1. The time-dependent cleavability of the compound PSMA-MT by α-amylase is shown. ^177Lu-PSMA-MT was incubated with an α-amylase (isolated from the human salivary gland) and enzymatic cleavage was monitored at different times by analytical HPLC.
The radiolabelled compound was incubated with α-amylase (isolated from the human salivary gland, Sigma-Aldrich) according to instructions of the manufacturer and enzymatic cleavage was monitored at different times by analytical HPLC (see FIG. 1).

α-Amylase = target: T3, α-Amylase (Homo sapiens, UniProt P0DUB6); assay: α-Amylase digestion of PSMA-MT, analysed by RP-HPLC and MALDI-TOF; assay type: in vitro ADME
T3 sequence (P0DUB6 16-511): T2 sequence (P0DUB6 16-511)
Experimental: 10 μl of a solution of PSMA-MT in ultrapure water with a concentration of 1 mM were analyzed by analytic RP-HPLC and MALDI-TOF before the digestion. For digestion 10 μl of α-Amylase (1 U/μl in H2O ) were added to 10 μl of a solution of PSMA-MT in ultrapure water with a concentration of 1 mM and incubated at RT for 1 h. The solution was afterwards analyzed with analytic RP-HPLC and MALDI-TOF to evaluate the reaction.
To investigate the exact digest position of PSMA-MT the different fragments found in the MALDI-TOF after the digest were compared. Two main peaks occurred at 902 g/mol and at 989 g/mol. […] Fragments corresponding to cleavage at cleavage site B could not be detected in the MALDI-TOF.

SMILES: O=C([O-])CN1CCN(CC(=O)[O-])CCN(CC(=O)NCC2CCC(C(=O)N[C@@H](Cc3ccc4ccccc4c3)C(=O)NCCCC[C@H](NC(=O)N[C@@H](CCC(=O)O)C(=O)O)C(=O)O)CC2)CCN(CC(=O)[O-])CC1.[177Lu+3] (some centres unmarked) [177Lu-PSMA-617, reference compound]
Organ distribution: Blood ([1]; 1 h): 0.31 % ID/g | Organ distribution: Brain ([1]; 1 h): 0.02 % ID/g | Organ distribution: Heart ([1]; 1 h): 0.17 % ID/g | Organ distribution: Kidney (first Kidney column) ([1]; 1 h): 143.55 % ID/g | Organ distribution: Kidney (second Kidney column) ([1]; 1 h): 146.77 % ID/g | Organ distribution: Liver ([1]; 1 h): 4.73 % ID/g | Organ distribution: Lung ([1]; 1 h): 0.61 % ID/g | Organ distribution: Muscle ([1]; 1 h): 0.07 % ID/g | Organ distribution: Small Intestine ([1]; 1 h): 0.18 % ID/g | Organ distribution: Spleen ([1]; 1 h): 5.86 % ID/g | Organ distribution: Tail ([1]; 1 h): 3.46 % ID/g | Organ distribution: Tumor ([1]; 1 h): 19.20 % ID/g | Organ distribution: Blood ([1]; 4 h): 0.03 % ID/g | Organ distribution: Brain ([1]; 4 h): 0.01 % ID/g | Organ distribution: Heart ([1]; 4 h): 0.03 % ID/g | Organ distribution: Kidney (first Kidney column) ([1]; 4 h): 5.52 % ID/g | Organ distribution: Kidney (second Kidney column) ([1]; 4 h): 5.50 % ID/g | Organ distribution: Liver ([1]; 4 h): 1.57 % ID/g | Organ distribution: Lung ([1]; 4 h): 0.08 % ID/g | Organ distribution: Muscle ([1]; 4 h): 0.01 % ID/g | Organ distribution: Small Intestine ([1]; 4 h): 0.04 % ID/g | Organ distribution: Spleen ([1]; 4 h): 1.20 % ID/g | Organ distribution: Tail ([1]; 4 h): 0.78 % ID/g | Organ distribution: Tumor ([1]; 4 h): 14.77 % ID/g | Specifically cell surface bound (cell uptake), mean (LNCaP cells): 4,09228993 % IA/10^5 cells | Specifically internalized (cell uptake), mean (LNCaP cells): 2,63598315 % IA/10^5 cells

SMILES: O=C([O-])CN1CCN(CC(=O)[O-])CCN(CC(=O)N2CCN(c3cccc(C4OCC5OC(OC6C(CO)OC(OC7C(CO)OC(Oc8ccc(CCC(=O)NCC9CCC(C(=O)NC(Cc%10ccc%11ccccc%11c%10)C(=O)NCCCCC(NC(=O)NC(CCC(=O)O)C(=O)O)C(=O)O)CC9)cc8)C(O)C7O)C(O)C6O)C(O)C(O)C5O4)c3)CC2)CCN(CC(=O)[O-])CC1.[177Lu+3] (centres unmarked) [177Lu-PSMA-MT]
Organ distribution: Blood ([1]; 1 h): 0.35 % ID/g | Organ distribution: Brain ([1]; 1 h): 0.02 % ID/g | Organ distribution: Heart ([1]; 1 h): 0.16 % ID/g | Organ distribution: Kidney (first Kidney column) ([1]; 1 h): 144.27 % ID/g | Organ distribution: Kidney (second Kidney column) ([1]; 1 h): 142.04 % ID/g | Organ distribution: Liver ([1]; 1 h): 2.07 % ID/g | Organ distribution: Lung ([1]; 1 h): 0.56 % ID/g | Organ distribution: Muscle ([1]; 1 h): 0.08 % ID/g | Organ distribution: Small Intestine ([1]; 1 h): 0.15 % ID/g | Organ distribution: Spleen ([1]; 1 h): 3.83 % ID/g | Organ distribution: Tail ([1]; 1 h): 4.61 % ID/g | Organ distribution: Tumor ([1]; 1 h): 12.83 % ID/g | Organ distribution: Blood ([1]; 4 h): 0.04 % ID/g | Organ distribution: Brain ([1]; 4 h): 0.01 % ID/g | Organ distribution: Heart ([1]; 4 h): 0.04 % ID/g | Organ distribution: Kidney (first Kidney column) ([1]; 4 h): 20.59 % ID/g | Organ distribution: Kidney (second Kidney column) ([1]; 4 h): 19.45 % ID/g | Organ distribution: Liver ([1]; 4 h): 4.58 % ID/g | Organ distribution: Lung ([1]; 4 h): 0.10 % ID/g | Organ distribution: Muscle ([1]; 4 h): 0.02 % ID/g | Organ distribution: Small Intestine ([1]; 4 h): 0.04 % ID/g | Organ distribution: Spleen ([1]; 4 h): 3.94 % ID/g | Organ distribution: Tail ([1]; 4 h): 0.50 % ID/g | Organ distribution: Tumor ([1]; 4 h): 9.18 % ID/g | Specifically cell surface bound (cell uptake), mean (LNCaP cells): 4,86794251 % IA/10^5 cells | Specifically internalized (cell uptake), mean (LNCaP cells): 2,14459836 % IA/10^5 cells

SMILES: O=C([O-])CC[C@H](NC(=O)N[C@@H](CCCCNC(=O)[C@H](Cc1ccc2ccccc2c1)NC(=O)C1CCC(CNC(=O)CN2CCN(CC(=O)[O-])CCN(CC(=O)[O-])CCN(CC(=O)[O-])CC2)CC1)C(=O)[O-])C(=O)[O-].[225Ac].[H+].[H+].[H+] (some centres unmarked) [225Ac-PSMA-617]
PSA value (prostate cancer; both patients): below the detectability limit | Clinical response (prostate cancer; two patients with extremely advanced and end-stage disease): complete remission

pIC50 (PSMA): ~7.70
SMILES: O=C(O)CCC(NC(=O)NC(CCCCNC(=O)C(Cc1ccc2ccccc2c1)NC(=O)C1CCC(CNC(=O)CN2CCN(CC(=O)O)CCN(CC(=O)O)CCN(CC(=O)O)CC2)CC1)C(=O)O)C(=O)O (centres unmarked) [PSMA-617, 2-[3-(1-Carboxy-5-{3-naphthalen-2-yl-2-[(4-{[2-(4,7,10-tris-carboxymethyl-1,4,7,10-tetraaza-cyclododec-1-yl)-acetylamino]-methyl}-cyclohexanecarbonyl) -amino]-propionylamino}-pentyl)-ureido]-pentanedioic acid, reference compound]

Basic cleavability of the linker by α-amylases [2]: demonstrated | Turnover of PSMA-MT on digestion with α-Amylase (original mass peak disappeared) (α-Amylase; 1 h at RT, 1 U/μl α-Amylase, 1 mM PSMA-MT, MALDI-TOF): complete turnover | Alpha-amylase cleavage site whose predicted fragments were found (α-Amylase; MALDI-TOF after digest, fragments for cleavage site B could not be detected): cleavage site A | pIC50 (PSMA): ~7.41
SMILES: O=C(O)CCC(NC(=O)NC(CCCCNC(=O)C(Cc1ccc2ccccc2c1)NC(=O)C1CCC(CNC(=O)CCc2ccc(OC3OC(CO)C(OC4OC(CO)C(OC5OC6COC(c7cccc(N8CCN(C(=O)CN9CCN(CC(=O)O)CCN(CC(=O)O)CCN(CC(=O)O)CC9)CC8)c7)OC6C(O)C5O)C(O)C4O)C(O)C3O)cc2)CC1)C(=O)O)C(=O)O (centres unmarked) [PSMA-MT, 1-(4-(3-oxo-3-PSMA-propyl)phenyl)-4″,6″-(3-(4-DOTA-piperazine)benzylidene)maltotriose]
